Active and inactive are the calls of the source. The calls are words filed in the database; no cut-off is given here.
Experiments:
Format in all cases: functional, cell-based
Settings in all cases: Homo sapiens
[1] = system: HUVEC; experiment: Antiapoptotic activity against HUVEC cells at 10 ug/ml after 48 hrs by MTT calorimetric assay
[2] = system: HUVEC; experiment: Antiapoptotic activity against HUVEC cells at 5 ug/ml after 48 hrs by MTT calorimetric assay
[3] = system: HUVEC; experiment: Antiapoptotic activity against HUVEC cells at 5 ug/ml after 24 hrs by MTT calorimetric assay
[4] = system: HUVEC; experiment: Antiapoptotic activity against HUVEC cells at 10 ug/ml after 24 hrs by MTT calorimetric assay
[5] = system: HUVEC; experiment: Antiapoptotic activity against HUVEC cells assessed as inhibition of DNA condensation and fragmentation after 48 hrs by DAPI staining
[6] = system: HREC; experiment: Antiapoptotic activity against HREC cells assessed as cell viability after 48 hrs
[7] = system: HUVEC; experiment: Antiapoptotic activity against HUVEC cells assessed as inhibition of DNA condensation and fragmentation after 48 hrs by TUNEL assay

Structure (SMILES)	Activity [1]	Activity [2]	Activity [3]	Activity [4]	Activity [5]	Activity [6]	Activity [7]
COC[C@H]1O[C@@H](O[C@H]2CC[C@@]3(C)C(=CC[C@H]4[C@@H]5CC[C@H]([C@H](C)CCCC(C)C)[C@@]5(C)CC[C@@H]43)C2)C[C@@H](OC)[C@@H]1OC	inactive	inactive	inactive	inactive			
C=C(CCC=C(C)C)[C@H]1CC[C@]2(C)[C@@H]1[C@H](O)C[C@@H]1[C@@]3(C)CC[C@H](O[C@@H]4O[C@H](CO)[C@@H](O)[C@H](O)[C@H]4O[C@@H]4O[C@H](CO)[C@@H](O)[C@H](O)[C@H]4O)C(C)(C)[C@@H]3CC[C@]12C	Active	Active	Active	Active			
CC(C)CCC[C@@H](C)[C@H]1CC[C@H]2[C@@H]3CC=C4C[C@@H](O[C@H]5C=C[C@H](O)[C@@H](CO)O5)CC[C@]4(C)[C@H]3CC[C@]12C	inactive	inactive	inactive	inactive			
CC(C)CCC[C@@H](C)[C@H]1CC[C@H]2[C@@H]3CC=C4C[C@@H](O[C@H]5C[C@@H](O)[C@H](O)[C@@H](CO)O5)CC[C@]4(C)[C@H]3CC[C@]12C	Active	Active	Active	Active			
CC(C)CCC[C@@H](C)[C@H]1CC[C@H]2[C@@H]3CC=C4C[C@@H](O[C@H]5CCCCO5)CC[C@]4(C)[C@H]3CC[C@]12C	Active	Active	Active	Active	Active	Active	Active
COCCOCO[C@H]1CC[C@@]2(C)C(=CC[C@H]3[C@@H]4CC[C@H]([C@H](C)CCCC(C)C)[C@@]4(C)CC[C@@H]32)C1		Active	Active				
CC(C)CCC[C@@H](C)[C@H]1CC[C@H]2[C@@H]3CC=C4C[C@@H](O[C@@H]5O[C@H](CO)[C@@H](O)[C@H](O)[C@H]5O)CC[C@]4(C)[C@H]3CC[C@]12C	inactive	inactive	inactive	inactive			
C=CCO[C@H]1CC[C@@]2(C)C(=CC[C@H]3[C@@H]4CC[C@H]([C@H](C)CCCC(C)C)[C@@]4(C)CC[C@@H]32)C1		Active	Active				
CC(=O)OC[C@H]1O[C@@H](O[C@H]2CC[C@@]3(C)C(=CC[C@H]4[C@@H]5CC[C@H]([C@H](C)CCCC(C)C)[C@@]5(C)CC[C@@H]43)C2)C=C[C@@H]1OC(C)=O	Active	Active	Active	Active	Active	Active	Active
CC(C)CCC[C@@H](C)[C@H]1CC[C@H]2[C@@H]3CC=C4C[C@@H](Oc5ccc6ccccc6c5)CC[C@]4(C)[C@H]3CC[C@]12C		Active	Active				
CC(C)CCC[C@@H](C)[C@H]1CC[C@H]2[C@@H]3CC=C4C[C@@H](OC/C=C/CO)CC[C@]4(C)[C@H]3CC[C@]12C		Active	Active				
COC[C@H]1O[C@@H](O[C@H]2CC[C@@]3(C)C(=CC[C@H]4[C@@H]5CC[C@H]([C@H](C)CCCC(C)C)[C@@]5(C)CC[C@@H]43)C2)C=C[C@@H]1OC	Active	Active	Active	Active			

— ChEMBL document CHEMBL1287695, “Cholesterol-derived novel anti-apoptotic agents on the structural basis of ginsenoside Rk1” (Bioorg Med Chem Lett, 2010)
